Results as given in patent publication US9803187B2 (priority 2014, dated 2017).
pIC50, pKi: −log10 of the molar value. Read-outs that look alike come from different tables or passages of the source.

Tests used:
E. coli (MC 1061) = test: microbe, parasite or virus in culture; format: cell-based; settings: Escherichia coli
AsbB = AsbB (Bacillus anthracis, UniProt Q81RQ8); test: biochemical; format: biochemical
AsbA [1] = biological target: T1, AsbA (Bacillus anthracis, UniProt A0A0F7RJ52); test: biochemical
S. aureus (Newman) = test: microbe, parasite or virus in culture; format: cell-based; settings: for pIC50: Staphylococcus aureus, NEWMAN, 8 h
S. flexneri (BS103) = test: microbe, parasite or virus in culture; format: cell-based; settings: Shigella flexneri
MRSA (USA 300) = test: microbe, parasite or virus in culture; format: cell-based, methicillin-resistant Staphylococcus aureus; settings: Staphylococcus aureus
S. typhimurium = test: microbe, parasite or virus in culture; format: cell-based; settings: Salmonella enterica
SbnE [2] = biological target: T2, SbnE (Staphylococcus aureus, UniProt Q2G1M9); test: biochemical; format: biochemical, S. aureus; settings: for pKi: inhibition constant (Ki) SbnE
SbnE [3] = biological target: T2, SbnE; test: biochemical
[4] = tested on: B. anthracis (Sterne 34F2); test: microbe, parasite or virus in culture; format: cell-based; settings: for pIC50: Bacillus anthracis
AsbA [5] = biological target: T1, AsbA; test: biochemical; format: biochemical, B. anthracis; settings: for pKi: inhibition constant (Ki) AsbA

T2 sequence (Q2G1M9 whole entry): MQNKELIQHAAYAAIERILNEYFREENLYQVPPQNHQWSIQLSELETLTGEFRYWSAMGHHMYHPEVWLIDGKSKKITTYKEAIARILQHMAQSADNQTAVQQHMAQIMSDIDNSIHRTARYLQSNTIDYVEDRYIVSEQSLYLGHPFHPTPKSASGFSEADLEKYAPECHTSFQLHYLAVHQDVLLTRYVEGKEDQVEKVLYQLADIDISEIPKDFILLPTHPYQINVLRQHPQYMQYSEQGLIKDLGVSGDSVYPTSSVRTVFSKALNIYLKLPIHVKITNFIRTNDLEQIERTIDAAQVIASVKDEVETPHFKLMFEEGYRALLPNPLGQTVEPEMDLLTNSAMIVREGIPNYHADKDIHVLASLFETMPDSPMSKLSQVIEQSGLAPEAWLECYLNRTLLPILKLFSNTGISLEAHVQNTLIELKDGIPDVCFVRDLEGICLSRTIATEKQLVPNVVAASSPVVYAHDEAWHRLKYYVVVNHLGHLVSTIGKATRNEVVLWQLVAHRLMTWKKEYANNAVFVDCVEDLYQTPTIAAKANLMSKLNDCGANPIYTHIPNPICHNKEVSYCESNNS
T1 sequence (A0A0F7RJ52 whole entry, looked up): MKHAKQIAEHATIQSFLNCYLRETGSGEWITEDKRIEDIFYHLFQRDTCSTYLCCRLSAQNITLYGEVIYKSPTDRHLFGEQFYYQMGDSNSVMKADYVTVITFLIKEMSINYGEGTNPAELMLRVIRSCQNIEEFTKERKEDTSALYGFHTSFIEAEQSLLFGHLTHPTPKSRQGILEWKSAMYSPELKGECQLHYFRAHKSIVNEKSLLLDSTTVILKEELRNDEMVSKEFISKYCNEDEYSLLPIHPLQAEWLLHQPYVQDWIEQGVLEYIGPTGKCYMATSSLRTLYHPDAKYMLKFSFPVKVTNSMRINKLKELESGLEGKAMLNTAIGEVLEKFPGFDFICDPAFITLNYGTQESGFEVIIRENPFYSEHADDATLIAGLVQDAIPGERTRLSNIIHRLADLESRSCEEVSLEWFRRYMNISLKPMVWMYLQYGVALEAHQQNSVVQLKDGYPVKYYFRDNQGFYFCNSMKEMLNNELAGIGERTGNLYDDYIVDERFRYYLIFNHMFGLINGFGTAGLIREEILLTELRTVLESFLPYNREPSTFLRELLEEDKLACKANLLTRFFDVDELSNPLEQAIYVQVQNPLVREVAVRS
Chain of AsbB (Q81RQ8 whole entry, looked up): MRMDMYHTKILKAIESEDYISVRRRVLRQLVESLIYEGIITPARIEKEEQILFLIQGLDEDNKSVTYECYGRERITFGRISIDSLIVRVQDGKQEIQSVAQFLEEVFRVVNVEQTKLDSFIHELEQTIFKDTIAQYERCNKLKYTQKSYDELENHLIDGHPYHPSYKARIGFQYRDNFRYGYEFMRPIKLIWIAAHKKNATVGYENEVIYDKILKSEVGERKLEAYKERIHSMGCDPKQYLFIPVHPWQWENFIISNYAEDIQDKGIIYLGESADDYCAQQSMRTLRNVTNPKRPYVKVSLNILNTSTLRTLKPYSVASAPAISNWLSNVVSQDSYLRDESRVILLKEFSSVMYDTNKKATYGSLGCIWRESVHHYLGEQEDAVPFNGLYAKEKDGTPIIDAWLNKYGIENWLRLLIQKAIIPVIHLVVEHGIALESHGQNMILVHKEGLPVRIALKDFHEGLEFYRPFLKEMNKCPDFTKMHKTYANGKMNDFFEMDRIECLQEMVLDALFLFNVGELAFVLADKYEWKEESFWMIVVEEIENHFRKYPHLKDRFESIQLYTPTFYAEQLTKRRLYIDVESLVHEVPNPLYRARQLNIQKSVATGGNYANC

`CCC(=O)[C@@H](C)C[C@@H](C)C[C@@H](C)CC[C@H](O)C[C@H](O)[C@H](CC(C)C)[C@H](O)c1cc(O)cc(O)c1` [BmcA, Baulamycin A] was tested, and the pIC50 (E. coli (MC 1061); read-out: IDM IC50) was 5.38, the pIC50 (E. coli (MC 1061); read-out: IRM IC50) was 3.82 and the pIC50 (AsbB) was < 3.00. The “inhibition against AsbB (in words)” value (AsbB) was “negligible”, the pIC50 (AsbA [1]) was 3.74 and the pIC50 (S. aureus (Newman); read-out: IDM IC50) was 4.16. The pIC50 (S. aureus (Newman); read-out: IRM IC50) was 4.07, the pIC50 (S. flexneri (BS103); read-out: IDM IC50) was 4.70 and the pIC50 (S. flexneri (BS103); read-out: IRM IC50) was 4.34. For the same compound, the pIC50 (MRSA (USA 300); read-out: IDM IC50) was 3.89, the pIC50 (MRSA (USA 300); read-out: IRM IC50) was 3.89 and the pIC50 (S. typhimurium; read-out: IC50, iron-depleted conditions) was < 3.00. The pIC50 (S. typhimurium; read-out: IC50, iron-rich conditions) was < 3.00, the pIC50 (S. typhimurium; read-out: IDM IC50) was < 3.00 and the pIC50 (S. typhimurium; read-out: IRM IC50) was < 3.00. For the same compound, the “mechanism of inhibition of SbnE” value (SbnE [2]) was “reversible, competitive”, the pKi (SbnE [2]; ATP) was 3.17 and the pKi (SbnE [2]; citric acid) was 4.30. It also gave a pKi (SbnE [2]; polyamine substrate) of 3.68, a pIC50 (SbnE [3]) of 5.32 and a pIC50 ([4]; read-out: IDM IC50) of 3.96. The pIC50 ([4]; read-out: IRM IC50) was 3.92, the “mechanism of inhibition of AsbA” value (AsbA [5]) was “reversible, competitive” and the pKi (AsbA [5]; ATP) was 3.64. For the same compound, the pKi (AsbA [5]; citric acid) was 3.96 and the pKi (AsbA [5]; polyamine substrate) was 3.77.

For `CC(=O)[C@@H](C)C[C@@H](C)C[C@@H](C)CC[C@H](O)C[C@H](O)[C@H](CC(C)C)[C@H](O)c1cc(O)cc(O)c1` [BmcB, Baulamycin B], the pIC50 (AsbB) was < 3.00, the “inhibition against AsbB (in words)” value (AsbB) was “negligible” and the pIC50 (AsbA [1]) was 3.70. The “potency against S. aureus (Newman) compared with BmcA (in words)” value (S. aureus (Newman)) was “significantly less potent”, the pIC50 (SbnE [3]) was 4.72 and the “potency against B. anthracis (Sterne 34F2) compared with BmcA (in words)” value [4] was “significantly less potent”.
